Measurements: ChEMBL document CHEMBL6121044, “Discovery of Novel Spirocyclic MAT2A Inhibitors Demonstrating High In Vivo Efficacy in MTAP-Null Xenograft Models” (J Med Chem, 2025)

Assays:
[1] = Microsomal metabolic stability in human liver microsomes assessed as clearance; type: ADME, Microsome; details: read-out: CLH
[2] = Microsomal metabolic stability in mouse liver microsomes assessed as clearance; type: ADME, Microsome; details: read-out: CLH
[3] = Volume of distribution at steady state in male ICR mouse at 10 mg/kg, po and 2 mg/kg, iv measured upto 24 hrs; type: ADME, organism-based; details: in vivo
[4] = molecular target: T1, S-adenosylmethionine synthase isoform type-2 (Homo sapiens, UniProt P31153); assay: Inhibition of MAT2A in MTAP-knock out human HCT-116 cells assessed as inhibition of PRMT5-mediated symmetric […]-arginine (SDMA) level; type: cell-based
[5] = molecular target: T1, S-adenosylmethionine synthase isoform type-2; assay: Inhibition of MAT2A in wild type human HCT-116 cells assessed as inhibition of PRMT5-mediated symmetric […]-arginine (SDMA) level; type: cell-based
[6] = AUCinf in male Sprague-Dawley rat at 2 mg/kg, iv measured upto 24 hrs upto 24 hrs by LC-MS/MS analysis; type: ADME, organism-based; details: in vivo
[7] = AUCinf in beagle dog at 2 mg/kg, iv measured upto 24 hrs upto 24 hrs by LC-MS/MS analysis; type: ADME, organism-based, Canis lupus familiaris; details: in vivo
[8] = Clearance rate in beagle dog at 2 mg/kg, iv measured upto 24 hrs upto 24 hrs by LC-MS/MS analysis; type: ADME, organism-based, Canis lupus familiaris; details: in vivo
[9] = Half life in male Sprague-Dawley rat at 2 mg/kg, iv measured upto 24 hrs upto 24 hrs by LC-MS/MS analysis; type: ADME, organism-based; details: in vivo
[10] = Half life in beagle dog at 2 mg/kg, iv measured upto 24 hrs upto 24 hrs by LC-MS/MS analysis; type: ADME, organism-based, Canis lupus familiaris; details: in vivo
[11] = Half life in male Sprague-Dawley rat at 10 mg/kg, po measured upto 24 hrs upto 24 hrs by LC-MS/MS analysis; type: ADME, organism-based; details: in vivo
[12] = Volume of distribution at steady state in male Sprague-Dawley rat at 2 mg/kg, iv measured upto 24 hrs upto 24 hrs by LC-MS/MS analysis; type: ADME, organism-based; details: in vivo
[13] = Cmax in male ICR mouse at 10 mg/kg, po measured upto 24 hrs by LC-MS/MS analysis; type: ADME, organism-based; details: in vivo
[14] = Oral bioavailability in beagle dog at 10 mg/kg measured upto 24 hrs upto 24 hrs by LC-MS/MS analysis; type: ADME, organism-based, Canis lupus familiaris; details: in vivo
[15] = Plasma protein binding in cynomolgus monkey assessed as unbound fraction; type: ADME, cell-free, Macaca fascicularis
[16] = Protein binding in mouse brain assessed as unbound fraction; type: ADME, tissue-based
[17] = Microsomal metabolic stability in Cynomolgus monkey liver microsomes assessed as half life; type: ADME, Macaca fascicularis, Microsome
[18] = Hepatic metabolic stability in human hepatocyte assessed as half life; type: ADME, cell-based; details: hepatocytes
[19] = Hepatic metabolic stability in Cynomolgus monkey hepatocyte assessed as half life; type: ADME, cell-based, Macaca fascicularis; details: hepatocytes
[20] = Dissociation constant, pKa of compound; type: physicochemical
[21] = Efflux ratio of apparent permeability in human Caco-2 cells; type: ADME, cell-based
[22] = molecular target: T2, Cytochrome P450 1A2 (Homo sapiens, UniProt P05177); assay: Inhibition of CYP1A2 (unknown origin); type: ADME
T2 sequence (P05177 whole entry): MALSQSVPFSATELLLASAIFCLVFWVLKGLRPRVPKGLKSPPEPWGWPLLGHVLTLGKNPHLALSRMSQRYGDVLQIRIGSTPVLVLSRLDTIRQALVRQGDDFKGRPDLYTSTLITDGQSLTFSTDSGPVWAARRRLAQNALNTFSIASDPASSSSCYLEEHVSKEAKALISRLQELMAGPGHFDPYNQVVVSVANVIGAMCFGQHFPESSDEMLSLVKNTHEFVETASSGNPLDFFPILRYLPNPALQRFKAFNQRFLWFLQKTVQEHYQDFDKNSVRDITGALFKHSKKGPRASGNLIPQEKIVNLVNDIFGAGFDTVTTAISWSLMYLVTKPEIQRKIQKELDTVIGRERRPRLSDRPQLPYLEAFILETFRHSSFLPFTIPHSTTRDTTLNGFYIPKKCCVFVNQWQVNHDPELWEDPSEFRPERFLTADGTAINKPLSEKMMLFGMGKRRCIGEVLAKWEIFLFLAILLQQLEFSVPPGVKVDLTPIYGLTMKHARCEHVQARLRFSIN

[23] = molecular target: T3, Cytochrome P450 2C8 (Homo sapiens, UniProt P10632); assay: Inhibition of CYP2C8 (unknown origin); type: ADME
T3 sequence (P10632 whole entry): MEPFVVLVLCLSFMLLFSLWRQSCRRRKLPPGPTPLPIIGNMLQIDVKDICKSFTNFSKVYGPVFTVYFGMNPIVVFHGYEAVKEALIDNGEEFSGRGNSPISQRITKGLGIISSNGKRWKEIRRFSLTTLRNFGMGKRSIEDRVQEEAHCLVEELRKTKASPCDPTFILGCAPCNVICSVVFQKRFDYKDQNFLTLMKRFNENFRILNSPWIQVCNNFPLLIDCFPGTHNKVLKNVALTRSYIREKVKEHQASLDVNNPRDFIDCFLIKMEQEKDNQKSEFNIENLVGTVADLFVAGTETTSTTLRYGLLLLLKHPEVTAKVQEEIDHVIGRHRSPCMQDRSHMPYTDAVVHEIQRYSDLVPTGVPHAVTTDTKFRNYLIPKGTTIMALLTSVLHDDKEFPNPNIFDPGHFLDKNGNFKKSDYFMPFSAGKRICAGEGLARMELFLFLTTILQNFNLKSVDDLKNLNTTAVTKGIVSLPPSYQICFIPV

[24] = molecular target: Cytochrome P450 2D6 (Homo sapiens, UniProt P10635); assay: Inhibition of CYP2D6 (unknown origin); type: ADME
[25] = molecular target: T4, UDP-glucuronosyltransferase 1A1 (Homo sapiens, UniProt P22309); assay: Inhibition of UGT1A1 (unknown origin)
T4 sequence (P22309 whole entry): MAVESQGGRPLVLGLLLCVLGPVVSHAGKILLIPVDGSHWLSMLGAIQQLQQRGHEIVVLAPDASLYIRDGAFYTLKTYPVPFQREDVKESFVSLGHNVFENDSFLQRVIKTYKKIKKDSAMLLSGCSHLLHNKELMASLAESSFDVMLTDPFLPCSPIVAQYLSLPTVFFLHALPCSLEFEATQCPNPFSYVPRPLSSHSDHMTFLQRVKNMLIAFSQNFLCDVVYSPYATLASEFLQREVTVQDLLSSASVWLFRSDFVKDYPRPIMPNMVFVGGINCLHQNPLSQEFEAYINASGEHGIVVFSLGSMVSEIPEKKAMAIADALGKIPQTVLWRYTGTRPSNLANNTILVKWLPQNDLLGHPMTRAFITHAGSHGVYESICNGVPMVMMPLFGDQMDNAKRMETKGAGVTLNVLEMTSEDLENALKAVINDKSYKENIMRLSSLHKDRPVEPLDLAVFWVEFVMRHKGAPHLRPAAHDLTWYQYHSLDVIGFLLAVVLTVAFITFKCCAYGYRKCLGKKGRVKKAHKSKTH

T1 sequence (P31153 whole entry, canonical isoform): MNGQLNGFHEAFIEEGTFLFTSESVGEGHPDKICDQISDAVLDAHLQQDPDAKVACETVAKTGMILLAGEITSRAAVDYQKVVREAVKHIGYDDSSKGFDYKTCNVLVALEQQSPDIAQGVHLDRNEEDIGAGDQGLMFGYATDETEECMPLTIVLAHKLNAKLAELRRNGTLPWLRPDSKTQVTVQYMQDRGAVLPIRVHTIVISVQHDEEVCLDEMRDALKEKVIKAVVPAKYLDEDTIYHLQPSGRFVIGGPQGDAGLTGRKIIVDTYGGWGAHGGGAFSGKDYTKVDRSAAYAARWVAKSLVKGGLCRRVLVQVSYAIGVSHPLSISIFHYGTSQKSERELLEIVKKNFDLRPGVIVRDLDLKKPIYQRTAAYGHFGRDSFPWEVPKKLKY
Chain of Cytochrome P450 2D6 (P10635 whole entry): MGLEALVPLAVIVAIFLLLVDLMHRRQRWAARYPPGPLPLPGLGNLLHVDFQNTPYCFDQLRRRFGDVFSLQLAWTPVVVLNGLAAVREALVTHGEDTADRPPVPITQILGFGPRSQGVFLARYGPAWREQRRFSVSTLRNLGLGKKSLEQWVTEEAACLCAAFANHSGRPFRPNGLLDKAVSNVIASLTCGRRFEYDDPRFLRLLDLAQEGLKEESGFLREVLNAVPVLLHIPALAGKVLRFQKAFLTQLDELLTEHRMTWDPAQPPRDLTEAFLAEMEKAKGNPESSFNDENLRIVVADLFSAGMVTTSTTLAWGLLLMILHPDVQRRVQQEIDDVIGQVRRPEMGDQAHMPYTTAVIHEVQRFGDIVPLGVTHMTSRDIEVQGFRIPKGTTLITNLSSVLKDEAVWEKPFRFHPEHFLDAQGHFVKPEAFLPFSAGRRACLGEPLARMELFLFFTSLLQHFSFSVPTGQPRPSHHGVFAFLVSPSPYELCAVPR

SMILES	CLint scaled [1]	CLint scaled [2]	Vdss [3]	IC50 [4]	IC50 [5]	AUC(0-inf) [7]	clearance [8]	t1/2 [9]	half-life [10]	half-life [11]	Vdss [12]	Cmax [13]	fraction unbound [15]	fraction unbound [16]	half-life [17]	half-life [18]	half-life [19]	pKa [20]	efflux ratio [21]	IC50 [22]	further results
[2H]C([2H])([2H])NC1=NC(=O)[C@]2(CCc3ncccc32)c2cc(C(C)(F)F)ccc21	< 9.3 mL/min/kg	37 mL/min/kg	1.53 L/kg	0.002 µM	> 3 µM	1860 ng·h/mL	15.3 mL/min/kg	2.03 h	6.56 h	2.35 h	1.95 L/kg	5820 ng/mL	0.519	0.148	> 3.1 h	> 3.61 h	> 3.61 h	4.9	5.27	> 10 µM	AUC ([6]; iv, 2 mg/kg, 24 h): 2212 ng·h/mL; F ([14]; po, 10 mg/kg, 24 h): 165%; IC50 [23]: > 10 µM; IC50 [24]: > 10 µM; IC50 [25]: > 50 µM
[2H]C([2H])([2H])NC1=NC(=O)[C@]2(CCc3ncccc32)c2cc(C(F)(F)F)ccc21	< 9.3 mL/min/kg	< 29.3 mL/min/kg	1.7 L/kg	0.001 µM	> 3 µM	2610 ng·h/mL	6.95 mL/min/kg	2.35 h	6.91 h	2.4 h	1.84 L/kg	5420 ng/mL	0.562	0.113	> 3.1 h	> 3.61 h	> 3.61 h	4.7	1.95	> 10 µM	AUC(0-inf) ([6]; male, Sprague-Dawley): 4990 ng·h/mL; bioavailability ([14]; beagle): 130%; IC50 [23]: > 10 µM; IC50 [24]: > 10 µM; IC50 [25]: > 50 µM
